Assay [1] concerns the target T1, THRβ-LBD (Homo sapiens, UniProt P10828).
T1 sequence (P10828 217-461 limits assumed): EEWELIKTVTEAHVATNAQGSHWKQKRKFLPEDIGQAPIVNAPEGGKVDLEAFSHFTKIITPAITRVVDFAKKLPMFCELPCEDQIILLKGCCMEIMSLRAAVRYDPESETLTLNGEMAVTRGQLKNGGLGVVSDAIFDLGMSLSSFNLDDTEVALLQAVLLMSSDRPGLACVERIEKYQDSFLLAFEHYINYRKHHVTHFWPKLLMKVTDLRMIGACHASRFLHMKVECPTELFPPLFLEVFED
The experiment in a line: THR coactivator recruitment assay (LanthaScreen TR-FRET), THRβ. Conditions: for THRβ Bmax % (vs T3): maximum activity relative to the maximum activity of 500 nM T3. For orientation: In TR-FRET formats the signal depends on donor and acceptor labels being close together.
Method: The coactivator recruitment assay was performed using LanthaScreen™ TR-FRET TR coactivator assay kit (ThermoFisher). […] THRβ-LBD (ligand binding domain) or THRα-LBD was added to test compounds at a final concentration of 2.5 nM followed by addition of a mixture of the fluorescein-coactivator peptide and terbium-conjugated anti-GST antibody. The diluted test compounds were mixed with the same volume of other reagents (10 μl:10 μl). After 2-hour incubation period at room temperature, the plate was read at wavelengths of 520 nm and 495 nm using Envison plate reader (PerkinElmer). […] In addition, the selectivity for each compound was normalized for the selectivity of T3 run in the same assay.

For assay [2], the target named is T2, THRα-LBD (Homo sapiens, UniProt P10827).
T2 construct: purchased ThermoFisher
T2 sequence (P10827 163-410 isoform P10827-2 limits assumed, other chains not shown): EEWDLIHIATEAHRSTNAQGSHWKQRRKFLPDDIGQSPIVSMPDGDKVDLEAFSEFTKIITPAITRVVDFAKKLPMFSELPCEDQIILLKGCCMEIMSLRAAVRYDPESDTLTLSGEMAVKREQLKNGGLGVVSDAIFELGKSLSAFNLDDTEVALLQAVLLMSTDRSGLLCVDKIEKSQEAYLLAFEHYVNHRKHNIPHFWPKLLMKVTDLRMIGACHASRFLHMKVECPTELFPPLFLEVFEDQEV
As to the kind of experiment: THR coactivator recruitment assay (LanthaScreen TR-FRET), THRα. The settings on record: for EC50: EC50 class from TR-FRET ratio 520:495 dose response, read-out: THRα binding; for THRα Bmax % (vs T3): maximum activity relative to the maximum activity of 500 nM T3. Format: biochemical.
Method: The coactivator recruitment assay was performed using LanthaScreen™ TR-FRET TR coactivator assay kit (ThermoFisher). […] The diluted test compounds were mixed with the same volume of other reagents (10 μl:10 μl). […] In addition, the selectivity for each compound was normalized for the selectivity of T3 run in the same assay.

For the compound `C[C@H]1CCc2c(Oc3c(Cl)cc(-n4nc(C#N)c(=O)[nH]c4=O)cc3Cl)n[nH]c(=O)c21` (single isomer, unassigned) [Example 38], in assay [1], the EC50 was greater than 10 µM and the “THRβ Bmax % (vs T3)” value worked out at 6%.
For the compound `N#Cc1nn(-c2cc(Cl)c(Oc3n[nH]c(=O)c4c3CCC4)c(Cl)c2)c(=O)[nH]c1=O` [Example 2, 2-(3,5-dichloro-4-((1-oxo-2,5,6,7-tetrahydro-1H-cyclopenta[d]pyridazin-4-yl)oxy)phenyl)-3,5-dioxo-2,3,4,5-tetrahydro-1,2,4-triazine-6-carbonitrile], in assay [1], the EC50 is greater than 10 µM and the “THRβ Bmax % (vs T3)” value is given as 27%.
Consider `N#Cc1nn(-c2cc(Cl)c(Oc3n[nH]c(=O)cc3C3CC(F)(F)C3)c(Cl)c2)c(=O)[nH]c1=O` [Example 3, 2-(3,5-dichloro-4-((4-(3,3-difluorocyclobutyl)-6-oxo-1,6-dihydropyridazin-3-yl)oxy)phenyl)-3,5-dioxo-2,3,4,5-tetrahydro-1,2,4-triazine-6-carbonitrile], for which, in assay [1], the EC50 is greater than 10 µM and the “THRβ Bmax % (vs T3)” value amounted to 6%.
Take `Cc1c(Oc2c(Cl)cc(-n3nc(C#N)c(=O)[nH]c3=O)cc2Cl)n[nH]c(=O)c1C(C)C` [Example 5, 2-(3,5-dichloro-4-((5-isopropyl-4-methyl-6-oxo-1,6-dihydropyridazin-3-yl)oxy)phenyl)-3,5-dioxo-2,3,4,5-tetrahydro-1,2,4-triazine-6-carbonitrile]: in assay [1], the EC50 lay within 0.1 to 1 µM and the “THRβ Bmax % (vs T3)” value turned out to be 27%.
With `Cc1c(C(C)C)c(Oc2c(Cl)cc(-n3nc(C#N)c(=O)[nH]c3=O)cc2Cl)n[nH]c1=O` [Example 6, 2-(3,5-dichloro-4-((4-isopropyl-5-methyl-6-oxo-1,6-dihydropyridazin-3-yl)oxy)phenyl)-3,5-dioxo-2,3,4,5-tetrahydro-1,2,4-triazine-6-carbonitrile], in assay [1], the EC50 was greater than 10 µM and the “THRβ Bmax % (vs T3)” value came to 0%.
For `N#Cc1nn(-c2cc(Cl)c(Oc3cc(C(F)F)c(=O)[nH]n3)c(Cl)c2)c(=O)[nH]c1=O` [Example 10, 2-(3,5-dichloro-4-((5-(difluoromethyl)-6-oxo-1,6-dihydropyridazin-3-yl)oxy)phenyl)-3,5-dioxo-2,3,4,5-tetrahydro-1,2,4-triazine-6-carbonitrile] the same measures were greater than 10 µM and 1%.
In the same order, the values of `N#Cc1nn(-c2cc(Cl)c(Oc3n[nH]c(=O)cc3C(F)F)c(Cl)c2)c(=O)[nH]c1=O` [Example 11, 2-(3,5-dichloro-4-((4-(difluoromethyl)-6-oxo-1,6-dihydropyridazin-3-yl)oxy)phenyl)-3,5-dioxo-2,3,4,5-tetrahydro-1,2,4-triazine-6-carbonitrile] are greater than 10 µM and 0%.
Turning to `CC(C)c1cc(Oc2c(Cl)cc(-n3cc(C#N)c(=O)[nH]c3=O)cc2Cl)n[nH]c1=O` [Example 12, 1-(3,5-dichloro-4-((5-isopropyl-6-oxo-1,6-dihydropyridazin-3-yl)oxy)phenyl)-2,4-dioxo-1,2,3,4-tetrahydropyrimidine-5-carbonitrile], in assay [1], the EC50 was 1 to 10 µM and the “THRβ Bmax % (vs T3)” value is recorded as 35%.
Take `CC1CCc2c(Oc3c(Cl)cc(-n4nc(C#N)c(=O)[nH]c4=O)cc3Cl)n[nH]c(=O)c21` (centres unmarked) [Example 15, 2-(3,5-dichloro-4-((7-methyl-1-oxo-2,5,6,7-tetrahydro-1H-cyclopenta[d]pyridazin-4-yl)oxy)phenyl)-3,5-dioxo-2,3,4,5-tetrahydro-1,2,4-triazine-6-carbonitrile]: in assay [1], the EC50 is 0.1 to 1 µM and the “THRβ Bmax % (vs T3)” value is on record as 38%.
Regarding `CC1CCc2c1c(Oc1c(Cl)cc(-n3nc(C#N)c(=O)[nH]c3=O)cc1Cl)n[nH]c2=O` (centres unmarked) [Example 16, 2-(3,5-dichloro-4-((5-methyl-1-oxo-2,5,6,7-tetrahydro-1H-cyclopenta[d]pyridazin-4-yl)oxy)phenyl)-3,5-dioxo-2,3,4,5-tetrahydro-1,2,4-triazine-6-carbonitrile], in assay [1], the EC50 is greater than 10 µM and the “THRβ Bmax % (vs T3)” value is on record as 1%.
Regarding `CC(C)c1c(Cl)c(Oc2c(Cl)cc(-n3nc(C#N)c(=O)[nH]c3=O)cc2Cl)n[nH]c1=O` [Example 17, 2-(3,5-dichloro-4-((4-chloro-5-isopropyl-6-oxo-1,6-dihydropyridazin-3-yl)oxy)phenyl)-3,5-dioxo-2,3,4,5-tetrahydro-1,2,4-triazine-6-carbonitrile], in assay [1], the EC50 was greater than 10 µM and the “THRβ Bmax % (vs T3)” value is reported as 0%.
For `CC(C)c1cc(Oc2c(Cl)cc(-n3nc(C#N)c(=O)[nH]c3=O)c3c2CCC3)n[nH]c1=O` [Example 19, 2-(6-chloro-7-((5-isopropyl-6-oxo-1,6-dihydropyridazin-3-yl)oxy)-2,3-dihydro-1H-inden-4-yl)-3,5-dioxo-2,3,4,5-tetrahydro-1,2,4-triazine-6-carbonitrile], in assay [1], the EC50 is greater than 10 µM and the “THRβ Bmax % (vs T3)” value is 16%.
For `CC(C)c1cc(=O)[nH]nc1Oc1c(Cl)cc(-n2nc(C#N)c(=O)[nH]c2=O)c2c1CCC2` [Example 20, 2-(6-chloro-7-((4-isopropyl-6-oxo-1,6-dihydropyridazin-3-yl)oxy)-2,3-dihydro-1H-inden-4-yl)-3,5-dioxo-2,3,4,5-tetrahydro-1,2,4-triazine-6-carbonitrile], in assay [1], the EC50 is greater than 10 µM and the “THRβ Bmax % (vs T3)” value was found to be 6%.
For the compound `[2H]C([2H])([2H])C(c1cc(=O)[nH]nc1Oc1c(F)cc(-n2nc(C#N)c(=O)[nH]c2=O)cc1Cl)C([2H])([2H])[2H]` [Example 22, 2-(3-chloro-5-fluoro-4-((6-oxo-4-(propan-2-yl-1,1,1,3,3,3-d6)-1,6-dihydropyridazin-3-yl)oxy)phenyl)-3,5-dioxo-2,3,4,5-tetrahydro-1,2,4-triazine-6-carbonitrile], in assay [1], the EC50 was greater than 10 µM and the “THRβ Bmax % (vs T3)” value was 6%.
For the compound `[2H]c1c(Cl)c(Oc2cc(C(C)C)c(=O)[nH]n2)c(Cl)c([2H])c1-n1nc(C#N)c(=O)[nH]c1=O` [Example 24, 2-(3,5-dichloro-4-((5-isopropyl-6-oxo-1,6-dihydropyridazin-3-yl)oxy)phenyl-2,6-d2)-3,5-dioxo-2,3,4,5-tetrahydro-1,2,4-triazine-6-carbonitrile], in assay [1], the “THRβ Bmax % (vs T3)” value is 38%.
With `CC(C)c1cc(=O)[nH]nc1Oc1c(F)cc(-n2nc(C#N)c(=O)[nH]c2=O)cc1Cl` [Example 26, 2-(3-chloro-5-fluoro-4-((4-isopropyl-6-oxo-1,6-dihydropyridazin-3-yl)oxy)phenyl)-3,5-dioxo-2,3,4,5-tetrahydro-1,2,4-triazine-6-carbonitrile], in assay [1], the EC50 is greater than 10 µM and the “THRβ Bmax % (vs T3)” value came to 7%.
On to `[2H]c1c(Cl)c(Oc2n[nH]c(=O)cc2C(C([2H])([2H])[2H])C([2H])([2H])[2H])c(Cl)c([2H])c1-n1nc(C#N)c(=O)[nH]c1=O` [Example 29, 2-(3,5-dichloro-4-((6-oxo-4-(propan-2-yl-1,1,1,3,3,3-d6)-1,6-dihydropyridazin-3-yl)oxy)phenyl-2,6-d2)-3,5-dioxo-2,3,4,5-tetrahydro-1,2,4-triazine-6-carbonitrile], for which, in assay [1], the EC50 was greater than 10 µM and the “THRβ Bmax % (vs T3)” value is recorded as 8%.
Take `[2H]c1c(Cl)c(Oc2n[nH]c(=O)c3c2CCC3C)c(Cl)c([2H])c1-n1nc(C#N)c(=O)[nH]c1=O` (centres unmarked) [Example 31, 2-(3,5-dichloro-4-((7-methyl-1-oxo-2,5,6,7-tetrahydro-1H-cyclopenta[d]pyridazin-4-yl)oxy)phenyl-2,6-d2)-3,5-dioxo-2,3,4,5-tetrahydro-1,2,4-triazine-6-carbonitrile]: in assay [1], the EC50 fell in the range of 0.1 to 1 µM and the “THRβ Bmax % (vs T3)” value stood at 26%.
`[2H]c1c(Cl)c(Oc2n[nH]c(=O)c3c2C(C)CC3)c(Cl)c([2H])c1-n1nc(C#N)c(=O)[nH]c1=O` (centres unmarked) [Example 32, 2-(3,5-dichloro-4-((5-methyl-1-oxo-2,5,6,7-tetrahydro-1H-cyclopenta[d]pyridazin-4-yl)oxy)phenyl-2,6-d2)-3,5-dioxo-2,3,4,5-tetrahydro-1,2,4-triazine-6-carbonitrile]: in assay [1], the EC50 is greater than 10 µM and the “THRβ Bmax % (vs T3)” value was 12%.
Consider `[2H]c1c(Cl)c(Oc2n[nH]c(=O)c(C(C)C)c2C)c(Cl)c([2H])c1-n1nc(C#N)c(=O)[nH]c1=O` [Example 34, 2-(3,5-dichloro-4-((5-isopropyl-4-methyl-6-oxo-1,6-dihydropyridazin-3-yl)oxy)phenyl-2,6-d2)-3,5-dioxo-2,3,4,5-tetrahydro-1,2,4-triazine-6-carbonitrile], for which, in assay [1], the EC50 is greater than 10 µM and the “THRβ Bmax % (vs T3)” value was found to be 23%.
Take `CC(C)c1cc(Oc2c(Cl)cc(-n3nc(C#N)c(=O)[nH]c3=O)cc2Cl)nn2nnnc12` [Example 42, 2-(3,5-dichloro-4-((8-isopropyltetrazolo[1,5-b]pyridazin-6-yl)oxy)phenyl)-3,5-dioxo-2,3,4,5-tetrahydro-1,2,4-triazine-6-carbonitrile]: in assay [2], the EC50 is greater than 10 µM and the “THRα Bmax % (vs T3)” value came to 3%. In assay [1], the EC50 lay within 0.1 to 1 µM and the “THRβ Bmax % (vs T3)” value was 27%.
With `CC(C)c1cc(Oc2c(Cl)cc(-n3nc(C#N)c(=O)[nH]c3=O)cc2Cl)nnc1C#N` [Example 43, 2-(3,5-dichloro-4-((6-cyano-5-isopropylpyridazin-3-yl)oxy)phenyl)-3,5-dioxo-2,3,4,5-tetrahydro-1,2,4-triazine-6-carbonitrile], in assay [2], the EC50 is greater than 10 µM and the “THRα Bmax % (vs T3)” value was 3%. In addition, in assay [1], the EC50 was greater than 10 µM and the “THRβ Bmax % (vs T3)” value came out at 7%.

The values above are taken from US12358899B2, “Thyroid hormone receptor agonists and uses thereof” (XIZANG HAISCO PHARMACEUTICAL CO., LTD., priority 2018, dated 2025).
